In US20090221588A1, “FUNGICIDAL COMPOSITIONS” (SYNGENTA CROP PROTECTION, INC., priority 2006, published 2009):

What was measured:
Septoria tritici = assay: Action against Septoria tritici: growth inhibition in nutrient broth, microtiter plate, photometric; format: cell-based; details: single active ingredient, 24° C., 72 hrs
Description: (§1) The action to be expected E for a given active ingredient combination obeys the so-called COLBY formula and can be calculated as follows (COLBY, S. R. “Calculating synergistic and antagonistic responses of herbicide combination”. Weeds, Vol. 15, pages 20-22; 1967): ppm=milligrams of active ingredient (=a.i.) per liter of spray mixture X=% action by active ingredient A) using p ppm of active ingredient Y=% action by active ingredient B) using q ppm of active ingredient. According to COLBY, the expected (additive) action of active ingredients A)+B) using p+q ppm of active ingredient is If the action actually observed (O) is greater than the expected action (E), then the action of the combination is super-additive, i.e. there is a synergistic effect. In mathematical terms, synergism corresponds to a positive value for the difference of (O-E). In the case of purely complementary addition of activities (expected activity), said difference (O-E) is zero. A negative value of said difference (O-E) signals a loss of activity compared to the expected activity. In the following examples a specific compound of formula (I) was used. Said compound of formula (I) was a mixture of the racemic syn- and anti-compound of formula (I), in a syn/anti-ratio of 9:1. Conidia of the fungus from cryogenic storage are directly mixed into nutrient broth (PDB potato dextrose broth). After placing a (DMSO) solution of the test compounds into a microtiter plate (96-well format) the nutrient broth containing the fungal spores is added. […] The fungicide interactions in the combinations are calculated according to COLBY method.

[1] = test system: Pseudocercosporella herpotrichoides var. acuformis; assay: Action against Pseudocercosporella herpotrichoides var. acuformis (eyespot/cereals): growth inhibition in nutrient broth, microtiter plate, photometric; format: cell-based; details: single active ingredient, 24° C., 72 hrs
Description: as §1

CC(C)C1C2CCC1c1c(NC(=O)c3cn(C)nc3C(F)F)cccc12 (racemic) [Cpd I, 3-difluoromethyl-1-methyl-1H-pyrazole-4-carboxylic acid (9-isopropyl-1,2,3,4-tetrahydro-1,4-methano-naphthalen-5-yl)-amide]
Observed control in % (% Cobs) (Septoria tritici; 0.063 ppm [mg/L] final medium): 26% | Observed control in % (% Cobs) (Septoria tritici; 0.125 ppm [mg/L] final medium): 52% | Observed control in % (% Cobs) ([1]; 0.016 ppm [mg/L] final medium): 12% | Observed control in % (% Cobs) ([1]; 0.031 ppm [mg/L] final medium): 40% | Observed control in % (% Cobs) ([1]; 0.063 ppm [mg/L] final medium): 67%

O=C(NCCc1ncc(C(F)(F)F)cc1Cl)c1ccccc1C(F)(F)F [Cpd B-1.1, fluopyram]
Observed control in % (% Cobs) (Septoria tritici; 0.063 ppm [mg/L] final medium): 6% | Observed control in % (% Cobs) (Septoria tritici; 0.125 ppm [mg/L] final medium): 0% | Observed control in % (% Cobs) ([1]; 0.016 ppm [mg/L] final medium): 1% | Observed control in % (% Cobs) ([1]; 0.031 ppm [mg/L] final medium): 3% | Observed control in % (% Cobs) ([1]; 0.063 ppm [mg/L] final medium): 14%
